Reference: article PMC8371461 (Frontiers in Pharmacology, 2021)

Columns and labels:
[1] = target: T1, ABL1(E255K)-phosphorylated (Homo sapiens, UniProt P00519, E255K); assay: kinome scan; type: binding; details: 10 µM
T1 construct: purchased DiscoverX (KINOMEscan)

[2] = target: T2, ABL1(Y253F)-phosphorylated (Homo sapiens, UniProt P00519, Y253F); assay: kinome scan; type: binding; details: 10 µM
T2 construct: purchased DiscoverX (KINOMEscan)

ARK5 = target: T3, ARK5 (Homo sapiens, UniProt O60285); assay: kinome scan; type: binding; details: 10 µM
T3 construct: purchased DiscoverX (KINOMEscan)

BIKE = target: T4, BIKE (Homo sapiens, UniProt Q9NSY1); assay: kinome scan; type: binding; details: 10 µM
T4 construct: purchased DiscoverX (KINOMEscan)

CAMKK1 = target: T5, CAMKK1 (Homo sapiens, UniProt Q8N5S9); assay: kinome scan; type: binding; details: 10 µM
T5 construct: purchased DiscoverX (KINOMEscan)

CAMKK2 = target: T6, CAMKK2 (Homo sapiens, UniProt Q96RR4); assay: kinome scan; type: binding; details: 10 µM
T6 construct: purchased DiscoverX (KINOMEscan)

CTK = target: T7, CTK (Homo sapiens, UniProt P42679); assay: kinome scan; type: binding; details: 10 µM
T7 construct: purchased DiscoverX (KINOMEscan)

EGFR(G719S) = target: T8, EGFR(G719S) (Homo sapiens, UniProt P00533, G719S); assay: kinome scan; type: binding; details: 10 µM
T8 construct: purchased DiscoverX (KINOMEscan)

EPHA7 = target: T9, EPHA7 (Homo sapiens, UniProt Q15375); assay: kinome scan; type: binding; details: 10 µM
T9 construct: purchased DiscoverX (KINOMEscan)

EPHB1 = target: T10, EPHB1 (Homo sapiens, UniProt P54762); assay: kinome scan; type: binding; details: 10 µM
T10 construct: purchased DiscoverX (KINOMEscan)

FGR = target: T11, FGR (Homo sapiens, UniProt P09769); assay: kinome scan; type: binding; details: 10 µM
T11 construct: purchased DiscoverX (KINOMEscan)

FLT3(D835Y) = target: T12, FLT3(D835Y) (Homo sapiens, UniProt P36888, D835Y); assay: kinome scan; type: binding; details: 10 µM
T12 construct: purchased DiscoverX (KINOMEscan)

INSR = target: T13, INSR (Homo sapiens, UniProt P06213); assay: kinome scan; type: binding; details: 10 µM
T13 construct: purchased DiscoverX (KINOMEscan)

[3] = target: T14, JAK3(JH1domain-catalytic) (Homo sapiens, UniProt P52333); assay: kinome scan; type: binding; details: 10 µM
T14 construct: JAK3(JH1domain-catalytic); purchased DiscoverX (KINOMEscan)

JNK3 = target: T15, JNK3 (Homo sapiens, UniProt P53779); assay: kinome scan; type: binding; details: 10 µM
T15 construct: purchased DiscoverX (KINOMEscan)

KIT(A829P) = target: T16, KIT(A829P) (Homo sapiens, UniProt P10721, A829P); assay: kinome scan; type: binding; details: 10 µM
T16 construct: purchased DiscoverX (KINOMEscan)

MAK = target: T17, MAK (Homo sapiens, UniProt P20794); assay: kinome scan; type: binding; details: 10 µM
T17 construct: purchased DiscoverX (KINOMEscan)

MAP3K15 = target: T18, MAP3K15 (Homo sapiens, UniProt Q6ZN16); assay: kinome scan; type: binding; details: 10 µM
T18 construct: purchased DiscoverX (KINOMEscan)

MARK4 = target: T19, MARK4 (Homo sapiens, UniProt Q96L34); assay: kinome scan; type: binding; details: 10 µM
T19 construct: purchased DiscoverX (KINOMEscan)

MLCK = target: T20, MLCK (Homo sapiens, UniProt Q32MK0); assay: kinome scan; type: binding; details: 10 µM
T20 construct: purchased DiscoverX (KINOMEscan)

NEK9 = target: T21, NEK9 (Homo sapiens, UniProt Q8TD19); assay: kinome scan; type: binding; details: 10 µM
T21 construct: purchased DiscoverX (KINOMEscan)

OSR1 = target: T22, OSR1 (Homo sapiens, UniProt O95747); assay: kinome scan; type: binding; details: 10 µM
T22 construct: purchased DiscoverX (KINOMEscan)

PAK6 = target: T23, PAK6 (Homo sapiens, UniProt Q9NQU5); assay: kinome scan; type: binding; details: 10 µM
T23 construct: purchased DiscoverX (KINOMEscan)

PHKG2 = target: T24, PHKG2 (Homo sapiens, UniProt P15735); assay: kinome scan; type: binding; details: 10 µM
T24 construct: purchased DiscoverX (KINOMEscan)

PIK3CA(E542K) = target: T25, PIK3CA(E542K) (Homo sapiens, UniProt P42336, E542K); assay: kinome scan; type: binding; details: 10 µM
T25 construct: purchased DiscoverX (KINOMEscan)

PIK3CA(M1043I) = target: T26, PIK3CA(M1043I) (Homo sapiens, UniProt P42336, M1043I); assay: kinome scan; type: binding; details: 10 µM
T26 construct: purchased DiscoverX (KINOMEscan)

PIK3CA(Q546K) = target: T27, PIK3CA(Q546K) (Homo sapiens, UniProt P42336, Q546K); assay: kinome scan; type: binding; details: 10 µM
T27 construct: purchased DiscoverX (KINOMEscan)

PIK3CD = target: T28, PIK3CD (Homo sapiens, UniProt O00329); assay: kinome scan; type: binding; details: 10 µM
T28 construct: purchased DiscoverX (KINOMEscan)

PIM1 = target: T29, PIM1 (Homo sapiens, UniProt P11309); assay: kinome scan; type: binding
T29 construct: purchased DiscoverX (KINOMEscan)

PRKD3 = target: T30, PRKD3 (Homo sapiens, UniProt O94806); assay: kinome scan; type: binding; details: 10 µM
T30 construct: purchased DiscoverX (KINOMEscan)

RET = target: T31, RET (Homo sapiens, UniProt P07949); assay: kinome scan; type: binding; details: 10 µM
T31 construct: purchased DiscoverX (KINOMEscan)

RIOK2 = target: T32, RIOK2 (Homo sapiens, UniProt Q9BVS4); assay: kinome scan; type: binding
T32 construct: T7 phage fusion (kinase-tagged phage); purchased DiscoverX; host or cells: BL21-derived E. coli (T7 phage)

ROCK1 = target: T33, ROCK1 (Homo sapiens, UniProt Q13464); assay: kinome scan; type: binding; details: 10 µM
T33 construct: purchased DiscoverX (KINOMEscan)

[4] = target: T34, RPS6KA5(Kin.Dom.1-N-terminal) (Homo sapiens, UniProt O75582); assay: kinome scan; type: binding; details: 10 µM
T34 construct: RPS6KA5(Kin.Dom.1-N-terminal); purchased DiscoverX (KINOMEscan)

SYK = target: T35, SYK (Homo sapiens, UniProt P43405); assay: kinome scan; type: binding; details: 10 µM
T35 construct: purchased DiscoverX (KINOMEscan)

TAOK2 = target: T36, TAOK2 (Homo sapiens, UniProt Q9UL54); assay: kinome scan; type: binding; details: 10 µM
T36 construct: purchased DiscoverX (KINOMEscan)

TRPM6 = target: T37, TRPM6 (Homo sapiens, UniProt Q9BX84); assay: kinome scan; type: binding; details: 10 µM
T37 construct: purchased DiscoverX (KINOMEscan)

[5] = target: T38, TYK2(JH1domain-catalytic) (Homo sapiens, UniProt P29597); assay: kinome scan; type: binding; details: 10 µM
T38 construct: TYK2(JH1domain-catalytic); purchased DiscoverX (KINOMEscan)

ULK1 = target: T39, ULK1 (Homo sapiens, UniProt O75385); assay: kinome scan; type: binding; details: 10 µM
T39 construct: purchased DiscoverX (KINOMEscan)

[6] = tested on: Cytochrome P450 3A4 isoform 1; parameters: method as in PubChem Bioassay ID 884; details: reported activity, data mining; ref PubChem Bioassay ID 884; cited from earlier work

T32 sequence (Q9BVS4 whole entry, the tested form may be a part): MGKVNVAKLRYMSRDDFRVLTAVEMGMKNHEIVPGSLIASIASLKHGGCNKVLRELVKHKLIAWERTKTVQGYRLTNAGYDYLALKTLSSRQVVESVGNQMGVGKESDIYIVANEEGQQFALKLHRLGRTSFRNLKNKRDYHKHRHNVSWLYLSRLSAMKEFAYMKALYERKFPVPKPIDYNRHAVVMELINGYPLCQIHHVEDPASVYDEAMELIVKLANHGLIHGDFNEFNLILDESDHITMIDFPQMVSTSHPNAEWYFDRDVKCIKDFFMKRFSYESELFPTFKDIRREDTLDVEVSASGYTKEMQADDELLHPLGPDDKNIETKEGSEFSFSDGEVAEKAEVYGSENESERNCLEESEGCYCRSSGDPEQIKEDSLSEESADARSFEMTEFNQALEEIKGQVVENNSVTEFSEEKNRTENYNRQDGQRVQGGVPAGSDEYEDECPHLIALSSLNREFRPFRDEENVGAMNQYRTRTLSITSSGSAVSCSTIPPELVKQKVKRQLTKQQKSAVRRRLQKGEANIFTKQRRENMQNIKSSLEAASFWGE
T29 sequence (P11309 whole entry): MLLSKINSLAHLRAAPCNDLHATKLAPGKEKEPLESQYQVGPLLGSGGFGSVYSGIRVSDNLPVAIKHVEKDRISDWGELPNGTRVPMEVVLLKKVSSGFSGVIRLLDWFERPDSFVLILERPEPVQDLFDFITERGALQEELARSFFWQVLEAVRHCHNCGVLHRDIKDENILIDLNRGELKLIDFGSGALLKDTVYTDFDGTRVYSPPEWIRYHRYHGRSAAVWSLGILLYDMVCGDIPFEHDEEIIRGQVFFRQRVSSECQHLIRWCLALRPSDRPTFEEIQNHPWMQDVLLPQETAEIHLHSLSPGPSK
T18 sequence (Q6ZN16 whole entry): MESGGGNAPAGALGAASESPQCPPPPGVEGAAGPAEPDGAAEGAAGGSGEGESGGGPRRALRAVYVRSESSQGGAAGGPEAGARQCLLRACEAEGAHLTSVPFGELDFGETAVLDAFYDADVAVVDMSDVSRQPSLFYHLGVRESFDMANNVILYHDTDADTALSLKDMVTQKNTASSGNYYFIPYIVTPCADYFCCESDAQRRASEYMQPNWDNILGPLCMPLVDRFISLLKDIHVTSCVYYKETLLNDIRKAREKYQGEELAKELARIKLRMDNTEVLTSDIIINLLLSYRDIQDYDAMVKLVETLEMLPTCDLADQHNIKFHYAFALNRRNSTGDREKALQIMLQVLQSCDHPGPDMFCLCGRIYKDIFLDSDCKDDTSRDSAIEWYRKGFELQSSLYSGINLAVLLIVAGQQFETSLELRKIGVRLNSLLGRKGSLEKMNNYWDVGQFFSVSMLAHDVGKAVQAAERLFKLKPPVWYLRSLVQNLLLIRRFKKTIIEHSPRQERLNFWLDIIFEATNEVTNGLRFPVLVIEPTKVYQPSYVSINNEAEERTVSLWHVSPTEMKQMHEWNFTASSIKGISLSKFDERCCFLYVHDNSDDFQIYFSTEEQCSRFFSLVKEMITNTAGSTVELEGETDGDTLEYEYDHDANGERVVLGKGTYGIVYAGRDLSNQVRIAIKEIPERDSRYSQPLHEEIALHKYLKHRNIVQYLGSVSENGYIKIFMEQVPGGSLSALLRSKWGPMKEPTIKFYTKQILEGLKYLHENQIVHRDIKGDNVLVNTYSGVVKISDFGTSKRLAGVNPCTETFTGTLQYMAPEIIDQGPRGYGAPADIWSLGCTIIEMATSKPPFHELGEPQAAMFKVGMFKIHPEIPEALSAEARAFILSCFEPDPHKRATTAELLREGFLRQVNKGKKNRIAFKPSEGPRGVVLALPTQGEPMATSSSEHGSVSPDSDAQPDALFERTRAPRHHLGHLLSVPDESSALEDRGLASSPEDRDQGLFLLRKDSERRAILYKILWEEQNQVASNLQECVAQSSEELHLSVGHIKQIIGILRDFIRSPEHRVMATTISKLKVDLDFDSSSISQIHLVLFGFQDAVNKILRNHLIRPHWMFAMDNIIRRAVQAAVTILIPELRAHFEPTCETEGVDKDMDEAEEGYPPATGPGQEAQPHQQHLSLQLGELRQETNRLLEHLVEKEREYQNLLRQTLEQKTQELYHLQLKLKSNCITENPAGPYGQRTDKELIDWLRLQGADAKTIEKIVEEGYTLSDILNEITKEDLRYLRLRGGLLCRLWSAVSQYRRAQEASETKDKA
T23 sequence (Q9NQU5 whole entry): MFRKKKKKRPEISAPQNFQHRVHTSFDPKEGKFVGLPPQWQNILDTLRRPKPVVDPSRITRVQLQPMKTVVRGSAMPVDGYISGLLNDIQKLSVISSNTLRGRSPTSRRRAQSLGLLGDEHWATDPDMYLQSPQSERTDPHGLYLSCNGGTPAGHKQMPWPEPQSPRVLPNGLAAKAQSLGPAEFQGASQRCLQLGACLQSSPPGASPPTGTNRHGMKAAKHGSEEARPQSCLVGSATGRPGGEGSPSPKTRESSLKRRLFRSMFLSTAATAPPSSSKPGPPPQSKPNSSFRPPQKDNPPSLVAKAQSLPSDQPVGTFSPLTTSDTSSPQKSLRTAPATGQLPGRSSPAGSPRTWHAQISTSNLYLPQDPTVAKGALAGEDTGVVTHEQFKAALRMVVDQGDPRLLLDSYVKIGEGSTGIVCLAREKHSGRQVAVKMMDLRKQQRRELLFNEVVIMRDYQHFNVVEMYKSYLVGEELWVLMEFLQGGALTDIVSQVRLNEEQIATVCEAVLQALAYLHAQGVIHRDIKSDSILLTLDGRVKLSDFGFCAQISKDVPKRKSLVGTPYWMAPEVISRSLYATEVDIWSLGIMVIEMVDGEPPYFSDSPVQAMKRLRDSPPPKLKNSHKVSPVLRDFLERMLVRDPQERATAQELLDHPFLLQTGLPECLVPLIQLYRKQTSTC
T33 sequence (Q13464 whole entry): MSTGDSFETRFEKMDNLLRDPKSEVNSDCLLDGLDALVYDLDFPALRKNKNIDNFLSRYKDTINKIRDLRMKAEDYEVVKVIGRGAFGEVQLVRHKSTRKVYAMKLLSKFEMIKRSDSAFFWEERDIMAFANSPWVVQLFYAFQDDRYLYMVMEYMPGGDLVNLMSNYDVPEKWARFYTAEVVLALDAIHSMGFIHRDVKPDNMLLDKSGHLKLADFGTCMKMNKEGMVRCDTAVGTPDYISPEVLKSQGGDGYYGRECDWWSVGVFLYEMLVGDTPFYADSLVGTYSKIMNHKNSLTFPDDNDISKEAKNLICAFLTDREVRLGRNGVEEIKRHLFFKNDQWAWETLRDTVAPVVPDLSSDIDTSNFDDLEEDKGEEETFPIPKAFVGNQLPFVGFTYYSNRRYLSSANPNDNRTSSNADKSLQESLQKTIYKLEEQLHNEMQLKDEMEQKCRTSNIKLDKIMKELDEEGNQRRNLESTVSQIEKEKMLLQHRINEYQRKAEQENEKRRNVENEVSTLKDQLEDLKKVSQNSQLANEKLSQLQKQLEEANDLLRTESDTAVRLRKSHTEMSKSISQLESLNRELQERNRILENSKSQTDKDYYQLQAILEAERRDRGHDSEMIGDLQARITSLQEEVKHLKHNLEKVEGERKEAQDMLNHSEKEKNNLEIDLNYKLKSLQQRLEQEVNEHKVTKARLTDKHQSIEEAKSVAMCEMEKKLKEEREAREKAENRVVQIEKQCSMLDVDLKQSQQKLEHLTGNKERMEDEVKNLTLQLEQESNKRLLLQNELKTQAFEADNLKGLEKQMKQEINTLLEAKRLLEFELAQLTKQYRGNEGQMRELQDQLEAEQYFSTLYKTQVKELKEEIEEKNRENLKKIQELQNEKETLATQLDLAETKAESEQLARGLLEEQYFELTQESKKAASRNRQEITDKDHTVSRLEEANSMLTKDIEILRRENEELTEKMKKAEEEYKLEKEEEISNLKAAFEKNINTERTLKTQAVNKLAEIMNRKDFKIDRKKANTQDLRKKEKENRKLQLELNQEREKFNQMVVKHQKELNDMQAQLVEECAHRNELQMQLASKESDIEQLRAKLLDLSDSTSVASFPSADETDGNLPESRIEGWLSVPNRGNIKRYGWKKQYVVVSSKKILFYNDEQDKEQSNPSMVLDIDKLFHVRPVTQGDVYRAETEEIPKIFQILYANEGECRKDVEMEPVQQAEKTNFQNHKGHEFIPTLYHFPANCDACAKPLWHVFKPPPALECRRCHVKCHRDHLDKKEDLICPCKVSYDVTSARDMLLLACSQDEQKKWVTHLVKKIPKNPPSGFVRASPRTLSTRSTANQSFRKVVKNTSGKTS
T5 sequence (Q8N5S9 whole entry): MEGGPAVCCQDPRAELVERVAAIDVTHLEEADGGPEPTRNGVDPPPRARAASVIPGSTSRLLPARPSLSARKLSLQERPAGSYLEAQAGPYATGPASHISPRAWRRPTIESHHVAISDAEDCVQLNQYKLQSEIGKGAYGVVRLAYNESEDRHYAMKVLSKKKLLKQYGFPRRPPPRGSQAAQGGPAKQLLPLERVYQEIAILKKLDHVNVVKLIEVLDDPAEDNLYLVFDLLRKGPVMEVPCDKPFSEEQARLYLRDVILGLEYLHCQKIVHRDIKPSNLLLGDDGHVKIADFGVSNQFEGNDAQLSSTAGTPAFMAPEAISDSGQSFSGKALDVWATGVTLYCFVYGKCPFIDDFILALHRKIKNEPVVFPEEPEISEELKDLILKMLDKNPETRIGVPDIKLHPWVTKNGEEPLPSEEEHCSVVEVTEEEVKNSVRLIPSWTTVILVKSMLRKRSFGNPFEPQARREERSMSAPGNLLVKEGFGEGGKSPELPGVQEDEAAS
T38 sequence (P29597 888-1187 limits assumed): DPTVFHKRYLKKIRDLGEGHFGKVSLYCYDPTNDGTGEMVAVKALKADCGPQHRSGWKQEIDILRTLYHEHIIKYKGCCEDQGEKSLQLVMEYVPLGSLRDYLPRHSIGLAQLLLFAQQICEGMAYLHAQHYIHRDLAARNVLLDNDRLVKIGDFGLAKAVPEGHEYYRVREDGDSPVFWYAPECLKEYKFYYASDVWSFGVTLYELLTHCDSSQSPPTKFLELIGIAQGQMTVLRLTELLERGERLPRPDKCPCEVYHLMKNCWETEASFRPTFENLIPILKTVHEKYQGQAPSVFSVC

With `Nc1ccc(N=Nc2ccccc2)c(N)n1` [phenazopyridine, 2,6-diamino-3-(phenylazo)pyridine] the kinase inhibition [1] was 62, the kinase inhibition [2] was 90 and the kinase inhibition (ARK5) was 89. For the same compound, the kinase inhibition (BIKE) was 99, the kinase inhibition (CAMKK1) was 100 and the kinase inhibition (CAMKK2) was 99. For the same compound, the kinase inhibition (CTK) was 98, the kinase inhibition (EGFR(G719S)) was 92 and the kinase inhibition (EPHA7) was 91. The kinase inhibition (EPHB1) was 100, the “remaining binding (% of control)” value (FGR) was 87 and the “percent of control (remaining binding)” value (FLT3(D835Y)) was 42. It also gave a kinase inhibition (INSR) of 75, a kinase inhibition [3] of 100 and a kinase inhibition (JNK3) of 91. The kinase inhibition (KIT(A829P)) was 95, the kinase inhibition (MAK) was 100 and the kinase inhibition (MAP3K15) was 94. It also gave a kinase inhibition (MARK4) of 84, a kinase inhibition (MLCK) of 96 and a kinase inhibition (NEK9) of 100. For the same compound, the kinase inhibition (OSR1) was 100, the kinase inhibition (PAK6) was 100 and the kinase inhibition (PHKG2) was 100. It also gave a kinase inhibition (PIK3CA(E542K)) of 98, a kinase inhibition (PIK3CA(M1043I)) of 100 and a kinase inhibition (PIK3CA(Q546K)) of 100. For the same compound, the kinase inhibition (PIK3CD) was 78, the “remaining binding (% of control)” value (PIM1; 10 µM) was 100 and the remaining binding at 10 µM (PIM1; read-out: Kinome scan (% of control at 10 µM)) was 100%. For the same compound, the kinase inhibition (PRKD3) was 100, the kinase inhibition (RET) was 100 and the “remaining binding (% of control)” value (RIOK2; 10 µM) was 0. It also gave a remaining binding at 10 µM (RIOK2; read-out: % Of control) of 0%, a kinase inhibition (ROCK1) of 78 and a kinase inhibition [4] of 100. For the same compound, the kinase inhibition (SYK) was 100, the kinase inhibition (TAOK2) was 91 and the kinase inhibition (TRPM6) was 100. For the same compound, the “remaining binding (% of control)” value [5] was 100, the kinase inhibition (ULK1) was 100 and the Concentration [6] was 0.1 µM.
